Patent US10028961B2, “Therapeutically active compounds and their methods of use” (AGIOS PHARMACEUTICALS, INC., priority 2013, dated 2018)
Like-named read-outs stand apart in the source and are kept apart here.

Experiments:
[1] = target: IDH1 wt/IDH1 R132H heterodimer (Homo sapiens (Human), UniProt O75874, R132H); assay: In vitro assay for IDH1m R132H inhibitors, IDH1 wt/IDH1 R132H heterodimer, NADPH depletion (diaphorase/resazurin); type: biochemical
How it was run: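 Purified IDH1wt-his/IDH1R132H-flag heterodimer (sf9 co-expression) pre-incubated 1 hr at room temperature with compound and NADPH before α-KG addition. Remaining NADPH read by diaphorase/resazurin conversion to fluorescent resorufin, 5 min at 25° C. Compounds diluted 1:50 from DMSO; IC50 determined.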

[2] = target: IDH1-R132H homodimer enzyme (Homo sapiens (Human), UniProt O75874, R132H); assay: In vitro assay IDH1-R132H homodimer, NADPH depletion assay with NADPH/NADP preincubation; type: biochemical; conditions: 5 μM NADPH and 37.5 μM NADP
Method: The following describes the experimental procedures that can be used to obtain data on columns 3 and 5 of Table 5.
A test compound is prepared as 10 mM stock in DMSO and diluted to 50× final concentration in DMSO, for a 50 μl reaction mixture. IDH enzyme activity converting alpha-ketoglutarate to 2-hydroxyglutaric acid is measured using a NADPH depletion assay. In the assay the remaining cofactor is measured at the end of the reaction with the addition of a catalytic excess of diaphorase and resazurin, to generate a fluorescent signal in proportion to the amount of NADPH remaining. […] The reaction is started with the addition of 10 μl of Substrate Mix ([…], 5 mM alpha-ketoglutarate, in Assay Buffer) and the mixture is incubated for 60 minutes at room temperature.

[3] = target: IDH2 R140Q (Homo sapiens (Human), UniProt P48735, R140Q); assay: In vitro assay for IDH2m R140Q inhibitors, cofactor depletion assay; type: biochemical; conditions: IDH2 R140Q enzyme
How it was run: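 Remaining cofactor measured fluorimetrically: diaphorase/resazurin Stop Mix […], halting the reaction. Before that, mutant enzyme and compound sat 1 h at RT, then substrate mix (4 μM NADPH, 1.6 mM α-KG) was added for 16 h at RT.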

[4] = tested on: U87MG pLVX-IDH2 R140Q-neo cells; assay: U87MG pLVX-IDH2 R140Q-neo cell based assay, 2-HG by LC-MS; conditions: Homo sapiens, U-87 MG
[5] = tested on: Neurosphere cells (TS603); assay: Cellular assay for IDH1m R132H inhibitors, 2-HG by LC-MS in neurosphere cells (TS603); type: cell-based; conditions: 2-HG in media at 48 hours
Method: Cellular Assay for IDH1m R132H Inhibitors.
The following describes the experimental procedures that can be used to obtain data in column 4 of Table 5.
Neurosphere cells (TS603) are grown at 37 C in 5% CO2 in Stem Cell Technologies NeuroCult™ NS-A media supplemented with 1% Primocin, 1% Normocin, 0.0002% Heparin, 20 ng/mL EGF and 10 ng/mL bFGF. Cells are harvested, pelleted and resuspended in Accumax for cell dissociation and counting. Cells are counted and then resuspended in NeuroCult media with 2× heparin, EGF and bFGF at 4 million cells/10 mL media. 100 μl of cell solution are plated in each well of a 96 well with the exception of columns 1 and 12. Columns 1 and 12 contain 200 μL PBS. Compound dose responses are set up at a 2× concentration in Neurocult media without heparin, EGF and bFGF. The final concentration of DMSO is 0.25%. DMSO only control wells are plated in row H. The plates are then placed in the incubator for 48 hours. At 48 hours, 100 μl of media is removed from each well and analyzed by LC-MS for 2-HG concentrations. The cell plate is placed back in the incubator for another 24 hours. At 72 hours post compound addition, 10 mL/plate of Promega Cell Titer Glo reagent is thawed and mixed. The cell plate is removed from the incubator and allowed to equilibrate to room temperature. Then 100 μl of Promega Cell Titer Glo reagent is added to each well of media. The cell plate is then placed on an orbital shaker for 10 minutes and then allowed to sit at room temperature for 20 minutes. The plate is then read for luminescence with an integration time of 500 ms.

[6] = tested on: HT1080 cells; assay: Cellular assay for IDH1m R132C inhibitors, 2-HG by LC-MS in HT1080 cells; type: cell-based; conditions: Homo sapiens, HT-1080
Method: The following describes the experimental procedures that can be used to obtain data on column 5 of Table 4.
Cells (HT1080 or U87MG) are grown in T125 flasks in DMEM containing 10% FBS, 1× penicillin/streptomycin and 500 ug/mL G418 (present in U87MG cells only). They are harvested by trypsin and seeded into 96 well white bottom plates at a density of 5000 cell/well in 100 ul/well in DMEM with 10% FBS. No cells are placed in columns 1 and 12. Cells are incubated overnight at 37° C. in 5% CO2. The next day test compounds are made up at 2× the final concentration and 100 ul are added to each cell well. The final concentration of DMSO is 0.2% and the DMSO control wells are plated in row G. The plates are then placed in the incubator for 48 hours. At 48 hours, 100 ul of media is removed from each well and analyzed by LC-MS for 2-HG concentrations. The cell plate is placed back in the incubator for another 24 hours. At 72 hours post compound addition, 10 mL/plate of Promega Cell Titer Glo reagent is thawed and mixed. The cell plate is removed from the incubator and allowed to equilibrate to room temperature. Then 100 ul of Promega Cell Titer Glo reagent is added to each well of media. The cell plate is then placed on an orbital shaker for 10 minutes and then allowed to sit at room temperature for 20 minutes. The plate is then read for luminescence with an integration time of 500 ms.
HT1080 cells are maintained in RPMI containing 10% FBS, 1× penicillin/streptomycin. […] The next day compounds are prepared in 100% DMSO and then diluted in media for a final concentration of 0.2% DMSO. Media is removed from the cell plates and 200 μL of the compound dilutions are added to each well. […] The cell plates are then allowed to incubate another 24 hours.

[7] = IDH1 wt/R132H heterodimer, NADPH/NADP, not saturated, read-out: IDH1 wt/R132H NADPH/NADP IC50 not saturated
[8] = IDH1 wt/IDH1 R132H heterodimer, 300 μM NADP (saturated), read-out: IDH1 wt/R132H NADPH/NADP IC50 saturated

Chain of IDH2 R140Q (P48735 40-452 R140Q): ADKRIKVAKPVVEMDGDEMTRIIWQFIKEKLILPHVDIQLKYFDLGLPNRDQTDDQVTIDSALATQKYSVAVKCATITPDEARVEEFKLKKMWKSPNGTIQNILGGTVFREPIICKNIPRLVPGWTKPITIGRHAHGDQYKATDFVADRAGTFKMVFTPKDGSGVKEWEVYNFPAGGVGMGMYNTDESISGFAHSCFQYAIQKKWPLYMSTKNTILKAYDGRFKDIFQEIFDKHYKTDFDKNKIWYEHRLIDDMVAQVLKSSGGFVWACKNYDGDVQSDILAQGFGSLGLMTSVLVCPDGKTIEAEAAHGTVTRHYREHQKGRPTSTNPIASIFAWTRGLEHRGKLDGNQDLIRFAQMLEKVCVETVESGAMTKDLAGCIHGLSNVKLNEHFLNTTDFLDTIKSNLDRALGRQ
Chain of IDH1-R132H homodimer enzyme (O75874 whole entry R132H): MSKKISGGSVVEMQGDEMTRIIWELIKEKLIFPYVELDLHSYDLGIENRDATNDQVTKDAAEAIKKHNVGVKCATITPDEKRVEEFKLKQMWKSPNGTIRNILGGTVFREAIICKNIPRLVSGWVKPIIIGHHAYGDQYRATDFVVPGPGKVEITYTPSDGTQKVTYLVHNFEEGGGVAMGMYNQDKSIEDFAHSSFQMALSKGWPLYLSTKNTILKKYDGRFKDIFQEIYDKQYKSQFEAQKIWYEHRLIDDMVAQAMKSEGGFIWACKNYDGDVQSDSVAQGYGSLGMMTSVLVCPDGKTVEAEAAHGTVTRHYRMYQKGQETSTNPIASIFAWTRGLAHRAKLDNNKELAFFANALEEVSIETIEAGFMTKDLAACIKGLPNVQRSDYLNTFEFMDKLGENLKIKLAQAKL
Chain of IDH1 wt/IDH1 R132H heterodimer (O75874 whole entry R132H): as above
Chain of IDH1 wt/IDH1 R132H heterodimer (O75874 whole entry, stated change not applied): as the sequence (O75874 whole entry R132H) above, with H132R counted along it

Row | Compound | IC50 [1, 7] | IC50 [2] | IC50 [3] | IC50 [4] | IC50 [5] | IC50 [1, 8] | IC50 [6]
1 | N#CC1(c2cc(Nc3nc(NC4CCC(F)(F)C4)nc(-n4ccc(C(F)(F)F)n4)n3)ccn2)CC1 (centres unmarked) [Compound 185] | < 50 nM | < 50 nM | < 50 nM | < 50 nM | < 50 nM |  | 
2 | FC1(F)CC[C@@H](Nc2nc(Nc3ccnc(C(F)(F)F)c3)nc(-c3cccc(C(F)(F)F)n3)n2)C1 [Compound 172] | < 50 nM | < 50 nM | < 50 nM | < 50 nM | < 50 nM |  | 
3 | Fc1cc(F)cc(Nc2nc(NC3CC(F)(F)C3)nc(-c3cncc(Cl)n3)n2)c1 [Compound 120] | < 50 nM | < 50 nM | < 50 nM | < 50 nM | < 50 nM |  | 
4 | FC(F)c1ccnc(-c2nc(NC3CCC(F)(F)CC3)nc(NC3CCC(F)(F)CC3)n2)n1 [Compound 308] | > 1000 nM | > 1000 nM | 100 to 1000 nM | 100 to 1000 nM | 100 to 1000 nM |  | 
5 | FC1(F)CCC(Nc2nc(NC3CCC(F)(F)C3)nc(-c3cncc(C(F)(F)F)n3)n2)C1 (centres unmarked) [Compound 138] | < 50 nM | < 50 nM | < 50 nM | < 50 nM | < 50 nM |  | 
6 | CC(F)(F)c1nc(-c2nc(NC3CCC(F)(F)CC3)nc(NC3CCC(F)(F)CC3)n2)cs1 [Compound 283] | 100 to 1000 nM | > 1000 nM | 100 to 1000 nM | 100 to 1000 nM |  |  | 
7 | CC(Nc1nc(Nc2ccnc(C(F)(F)F)c2)nc(-n2ccc(C(F)(F)F)n2)n1)C(F)(F)F (centres unmarked) [Compound 177] | < 50 nM | 50 to 100 nM | < 50 nM | < 50 nM | < 50 nM |  | 
8 | CC(Nc1nc(NC(C)C(F)(F)F)nc(-c2cccc(Cl)n2)n1)C(F)(F)F (centres unmarked) [Compound 130] |  |  |  | < 50 nM |  |  | < 50 nM
9 | FC1(F)CCC(Nc2nc(Nc3ccnc(C(F)(F)F)c3)nc(-n3ccc(C(F)(F)F)n3)n2)C1 (centres unmarked) [Compound 173] | < 50 nM | < 50 nM | < 50 nM | < 50 nM | < 50 nM |  | 
10 | Cn1cc(-c2nc(NC3CCC(F)(F)CC3)nc(NC3CCC(F)(F)CC3)n2)c(C(F)(F)F)n1 [Compound 275] | 100 to 1000 nM | > 1000 nM |  |  |  |  | 
11 | C[C@H](Nc1nc(Nc2ccnc(C3(C#N)CC3)c2)nc(-c2cccc(C(F)(F)F)n2)n1)C(F)(F)F [Compound 351] |  |  | < 50 nM | < 50 nM | < 50 nM | < 50 nM | 
12 | Fc1cc(F)cc(Nc2nc(NC3CCC(F)(F)C3)nc(-c3nc(F)ccc3F)n2)c1 (centres unmarked) [Compound 139] | < 50 nM |  | < 50 nM | < 50 nM | < 50 nM |  | 
13 | FC1(F)CCC(Nc2nc(NC3CCC(F)(F)C3)nc(-c3nc(C(F)(F)F)cs3)n2)C1 (centres unmarked) [Compound 148] | < 50 nM |  | < 50 nM | < 50 nM | < 50 nM |  | 
14 | C[C@@H](Nc1nc(N[C@H](C)C2CC2)nc(-c2cc(F)ccc2F)n1)C1CC1 [Compound 292] | 100 to 1000 nM |  |  |  |  |  | > 1000 nM

Further lines, results first:

Row | IC50 [1, 7] | IC50 [2] | IC50 [3] | IC50 [4] | IC50 [5] | IC50 [1, 8] | IC50 [6] | Compound
15 | > 1000 nM | > 1000 nM |  |  |  |  |  | Cc1nsc(-c2nc(NC3CCC(F)(F)CC3)nc(NC3CCC(F)(F)CC3)n2)n1 [Compound 328]
16 |  | < 50 nM | < 50 nM | < 50 nM | < 50 nM | < 50 nM |  | Fc1cc(F)cc(Nc2nc(N[C@H]3CCC(F)(F)C3)nc(-c3cncc(C(F)(F)F)n3)n2)c1 [Compound 368]
17 | 100 to 1000 nM | 100 to 1000 nM |  |  |  |  |  | FC1(F)CCC(Nc2cc(NC3CCC(F)(F)CC3)nc(-c3cncc(C(F)(F)F)n3)n2)CC1 [Compound 421]
18 | > 1000 nM | > 1000 nM |  |  |  |  |  | Cc1nc(-c2nc(NC3CCC(F)(F)CC3)nc(NC3CCC(F)(F)CC3)n2)c[nH]1 [Compound 332]
19 | > 1000 nM | > 1000 nM |  |  |  |  |  | COCCc1ccnc(-c2nc(NC3CCC(F)(F)CC3)nc(NC3CCC(F)(F)CC3)n2)n1 [Compound 315]
20 | > 1000 nM | > 1000 nM |  |  |  |  |  | Cc1nc(-c2nc(NC3CC(F)(F)C3)nc(NC3CC(F)(F)C3)n2)c[nH]1 [Compound 317]
21 | > 1000 nM | > 1000 nM |  |  |  |  |  | Oc1ccc(F)c(-c2nc(NC3CCC(F)(F)CC3)nc(NC3CCC(F)(F)CC3)n2)n1 [Compound 309]
22 | > 1000 nM | > 1000 nM |  |  |  |  |  | Cc1nc(-c2nc(NC3CCC(F)(F)C3)nc(NC3CCC(F)(F)C3)n2)c[nH]1 (centres unmarked) [Compound 319]
23 | > 1000 nM | > 1000 nM |  |  |  |  |  | FC1(F)CCC(Nc2nc(NC3CCC(F)(F)CC3)nc(-c3nc(-c4ccccc4)ns3)n2)CC1 [Compound 333]
24 |  |  | < 50 nM | < 50 nM | < 50 nM | < 50 nM |  | N#CC1(c2cc(Nc3nc(N[C@H]4CCC(F)(F)C4)nc(-c4cncc(C(F)(F)F)n4)n3)ccn2)CC1 [Compound 373]
25 |  |  | < 50 nM | < 50 nM | < 50 nM | < 50 nM |  | FC1(F)CC[C@@H](Nc2nc(N[C@H]3CCC(F)(F)C3)nc(-c3cncc(C(F)(F)F)n3)n2)C1 [Compound 399]
26 |  |  | < 50 nM | < 50 nM | < 50 nM | < 50 nM |  | C[C@H](Nc1nc(Nc2ccnc(C3(C#N)CC3)c2)nc(-n2ccc(C(F)(F)F)n2)n1)C(F)(F)F [Compound 349]
27 |  |  | < 50 nM | < 50 nM | < 50 nM | < 50 nM |  | CC(F)(F)c1cncc(-c2nc(NC3CCC(F)(F)C3)nc(NC3CCC(F)(F)C3)n2)n1 (centres unmarked) [Compound 370]
28 |  |  | < 50 nM | < 50 nM | < 50 nM | < 50 nM |  | Fc1cc(F)cc(Nc2nc(N[C@@H]3CCC(F)(F)C3)nc(-c3cncc(C(F)(F)F)n3)n2)c1 [Compound 369]
29 |  |  | < 50 nM | < 50 nM | < 50 nM | < 50 nM |  | CC(F)(F)c1cc(Nc2nc(NC3CC(F)(F)C3)nc(-c3cccc(C(F)(F)F)n3)n2)ccn1 [Compound 358]
30 |  |  | < 50 nM | < 50 nM | < 50 nM | 100 to 1000 nM |  | N#CC1(c2cc(Nc3nc(N[C@H]4CCC(F)(F)C4)nc(-c4ccnc(C(F)(F)F)n4)n3)ccn2)CC1 [Compound 341]
31 |  |  | < 50 nM | < 50 nM | < 50 nM | < 50 nM |  | FC1(F)CCC(Nc2nc(NC3CCC(F)(F)C3)nc(-c3cccc(C(F)(F)F)n3)n2)CC1 (centres unmarked) [Compound 395]
